Patent publication US9932637B2, “Genetic polymorphisms associated with cardiovascular disorders and drug response, methods of detection and uses thereof” (CELERA CORPORATION, priority 2003, dated 2018)

Legend:
[1] = system: patients with prior myocardial infarction (CARE study); experiment: CARE: association of SNPs with pravastatin treatment in RMI prevention (genotypic RR in placebo and statin strata; Table 10); assay type: in vivo, human
Text: In order to identify genetic markers associated with acute coronary events (e.g. MI, stroke, unstable angina, congestive heart failure, etc.) or response to statin treatment for the prevention of coronary events, samples from the Cholesterol and Recurrent Events (CARE) study (a randomized multicentral double-blinded trial on secondary prevention of acute coronary events with pravastatin) (Sacks et al., 1991, Am. J. Cardiol. 68: 1436-1446) were genotyped. A well-documented myocardial infarction (MI) was one of the enrollment criteria for entry into the CARE study. Patients were enrolled in the CARE trial from 80 participating study centers. […] Patients were randomized to receive either 40 mg of pravastatin once daily or a matching placebo. The primary endpoint of the trial was death from coronary heart disease and the median duration of follow-up was 5.0 years (range, 4.0 to 6.2 years). […] Secondary endpoints of other related cardiovascular or metabolic disease events, and changes in clinical variables were also recorded in pravastatin-treated and placebo groups. All individuals included in the study had signed a written informed consent form and the study protocol was approved by the respective Institutional Review Boards (IRBs).
For genotyping SNPs in CARE patient samples, DNA was extracted from blood samples using conventional DNA extraction methods such as the QIA-amp kit from Qiagen. Genotypes were obtained on an ABI PRISM® 7900HT Sequence Detection PCR system (Applied Biosystems, Foster City, Calif.) by kinetic allele-specific PCR, similar to the method described by Germer et al. (Germer S., Holland M. J., Higuchi R. 2000, Genome Res. 10: 258-266).
For statistical analysis of association of SNPs with pravastatin treatment in RMI prevention (Table 10), effect sizes were estimated through genotypic RR, including 95% CIs. Homogeneity of Cochran-Mantel-Haenszel odds ratios was tested across pravastatin and placebo strata using the Wald test. […] (this adjustment supports independence of the SNP association from conventional risk factors). This table also provides the frequency data for the at risk allele in the columns labeled “Case Y PRIMER ALLELE Nucleotide Frequency” and “Control Y PRIMER ALLELE Nucleotide Frequency”. Allele frequencies for the cases and controls ≤0.49 indicate that the at-risk allele is the minor allele. Allele frequencies ≥0.50 indicate that the at-risk allele is the major allele. An example of a SNP associated with increased risk for an adverse cardiovascular event in the placebo group using a dominant genotypic test is hCV25644901. […] However, this same SNP was protective in the statin treated group with a RR of 0.58. An example of a SNP associated with an adverse cardiovascular event in the placebo group using the allelic association test is hCV16044337 with a RR of 1.87 for the homozygous AA genotype. This same genotype was protective in the statin treated group with a RR of 0.56.

[2] = system: animal models and myocyte cultures; settings: compared to other hydrophobic statins; cited from earlier work

CC[C@H](C)C(=O)O[C@H]1C[C@H](O)C=C2C=C[C@H](C)[C@H](CC[C@@H](O)C[C@@H](O)CC(=O)O)[C@H]21 [pravastatin]
RR (relative risk for RMI) ([1]; HSPG2 hCV16172339, Het(TC) stratum, Statin vs Placebo, covars none): 0.37
RR (relative risk for RMI) ([1]; HSPG2 hCV16172339, Maj Hom (CC) stratum, Statin vs Placebo, covars none): 0.80
RR (relative risk for RMI) ([1]; HSPG2 hCV16172339, Statin stratum, het (TC)vs. ref(CC), covars none): 0.66
RR (relative risk for RMI) ([1]; IL4R hCV2351160, Het(GA) stratum, Statin vs Placebo, covars HX_SMOKE): 0.57
RR (relative risk for RMI) ([1]; IL4R hCV2351160, Maj Hom(AA) stratum, Statin vs Placebo, covars HX_SMOKE): 0.85
RR (relative risk for RMI) ([1]; IL4R hCV2351160, Min Hom(GG) stratum, Statin vs Placebo, covars HX_SMOKE): 0.36
RR (relative risk for RMI) ([1]; IL4R hCV2351160, Statin stratum, het(GA) vs. ref(AA), covars HX_SMOKE): 0.76
RR (relative risk for RMI) ([1]; IL4R hCV2351160, Statin stratum, hom (GG)vs. ref(AA), covars HX_SMOKE): 0.61
RR (relative risk for RMI) ([1]; IL4R hCV2769554, Het(GA) stratum, Statin vs Placebo): 0.64
RR (relative risk for RMI) ([1]; IL4R hCV2769554, Maj Hom(AA) stratum, Statin vs Placebo): 0.59
RR (relative risk for RMI) ([1]; IL4R hCV2769554, Min Hom(GG) stratum, Statin vs Placebo): 1.56
RR (relative risk for RMI) ([1]; IL4R hCV2769554, Statin stratum, het(GA) vs. ref(AA)): 1.17
RR (relative risk for RMI) ([1]; IL4R hCV2769554, Statin stratum, hom(GG) vs. ref(AA)): 1.26
RR (relative risk for RMI) ([1]; ITGA9 hCV3215409, Het(GA) stratum, Statin vs Placebo): 0.86
RR (relative risk for RMI) ([1]; ITGA9 hCV3215409, Maj Hom(AA) stratum, Statin vs Placebo): 0.84
RR (relative risk for RMI) ([1]; ITGA9 hCV3215409, Min Hom(GG) stratum, Statin vs Placebo): 0.30
RR (relative risk for RMI) ([1]; ITGA9 hCV3215409, Statin stratum, het (GA)vs. ref(AA)): 1.22
RR (relative risk for RMI) ([1]; ITGA9 hCV3215409, Statin stratum, hom(GG) vs. ref(AA)): 0.54
RR (relative risk for RMI) ([1]; LAMA2 hCV16047108, Het (GA) stratum, Statin vs Placebo): 1.31
RR (relative risk for RMI) ([1]; LAMA2 hCV16047108, Maj Hom (AA) stratum, Statin vs Placebo): 0.63
RR (relative risk for RMI) ([1]; LAMA2 hCV16047108, Statin stratum, het(GA) vs. ref (AA)): 2.02
RR (relative risk for RMI) ([1]; LAMA2 hCV16047108, Statin stratum, hom(GG) vs. ref (AA)): 4.97
RR (relative risk for RMI) ([1]; LPA hCV11225994, Het(GA) stratum, Statin vs Placebo): 1.02
RR (relative risk for RMI) ([1]; LPA hCV11225994, Maj Hom(GG) stratum, Statin vs Placebo): 0.62
RR (relative risk for RMI) ([1]; LPA hCV11225994, Min Hom(AA) stratum, Statin vs Placebo): 1.33
RR (relative risk for RMI) ([1]; LPA hCV11225994, Statin stratum, het(GA) vs. ref (GG)): 1.06
RR (relative risk for RMI) ([1]; LPA hCV11225994, Statin stratum, hom (AA)vs. ref(GG)): 2.34
RR (relative risk for RMI) ([1]; MACF1 hCV3112686, Het(GC) stratum, Statin vs Placebo, covars HX_SMOKE): 0.71
RR (relative risk for RMI) ([1]; MACF1 hCV3112686, Maj Hom(CC) stratum, Statin vs Placebo, covars HX_SMOKE): 0.96
RR (relative risk for RMI) ([1]; MACF1 hCV3112686, Min Hom(GG) stratum, Statin vs Placebo, covars HX_SMOKE): 0.42
RR (relative risk for RMI) ([1]; MACF1 hCV3112686, Statin stratum, het(GC) vs. ref(CC), covars HX_SMOKE): 0.98
RR (relative risk for RMI) ([1]; MACF1 hCV3112686, Statin stratum, hom(GG) vs. ref(CC), covars HX_SMOKE): 0.60
RR (relative risk for RMI) ([1]; NPC1 hCV25472673, Het(TC) stratum, Statin vs Placebo, covars none): 0.61
RR (relative risk for RMI) ([1]; NPC1 hCV25472673, Maj Hom(TT) stratum, Statin vs Placebo, covars none): 1.08
RR (relative risk for RMI) ([1]; NPC1 hCV25472673, Statin stratum, het(TC) vs. ref(TT), covars none): 0.76
RR (relative risk for RMI) ([1]; NPC1 hCV25472673, Statin stratum, hom(CC) vs. ref(TT), covars none): 0.87
RR (relative risk for RMI) ([1]; PLAB hCV7494810, Het(GC) stratum, Statin vs Placebo, covars HX_SMOKE): 0.46
RR (relative risk for RMI) ([1]; PLAB hCV7494810, Maj Hom(CC) stratum, Statin vs Placebo, covars HX_SMOKE): 0.94
RR (relative risk for RMI) ([1]; PLAB hCV7494810, Min Hom(GG) stratum, Statin vs Placebo, covars HX_SMOKE): 0.75
RR (relative risk for RMI) ([1]; PLAB hCV7494810, Statin stratum, het(GC) vs. ref(CC), covars HX_SMOKE): 0.67
RR (relative risk for RMI) ([1]; PLAB hCV7494810, Statin stratum, hom(GG) vs. ref(CC), covars HX_SMOKE): 0.68
RR (relative risk for RMI) ([1]; PPOX hCV25922816, Het(GA) stratum, Statin vs Placebo): 0.42
RR (relative risk for RMI) ([1]; PPOX hCV25922816, Maj Hom(GG) stratum, Statin vs Placebo): 0.82
RR (relative risk for RMI) ([1]; PPOX hCV25922816, Statin stratum, het(GA) vs. ref(GG)): 0.64
RR (relative risk for RMI) ([1]; PTPRJ hCV8895373, Het(GA) stratum, Statin vs Placebo): 1.07
RR (relative risk for RMI) ([1]; PTPRJ hCV8895373, Maj Hom(GG) stratum, Statin vs Placebo): 0.60
RR (relative risk for RMI) ([1]; PTPRJ hCV8895373, Min Hom(AA) stratum, Statin vs Placebo): 1.62
RR (relative risk for RMI) ([1]; PTPRJ hCV8895373, Statin stratum, het(GA) vs. ref (GG)): 1.43
RR (relative risk for RMI) ([1]; PTPRJ hCV8895373, Statin stratum, hom(AA)vs. ref(GG)): 1.14
RR of adverse cardiovascular event in the statin treated group ([1]; hCV16044337, homozygous AA genotype): 0.56
RR of adverse cardiovascular event in the statin treated group ([1]; hCV25644901, dominant genotype (GG or GA)): 0.58
myopathic potential [2]: low myopathic potential
